Measurements: publication PMC6092832, “Anti-inflammatory activities of Aedes aegypti cecropins and their protection against murine endotoxin shock” (Parasites & Vectors, 2018)
Like-named read-outs stand apart in the source and are kept apart here. Where no end group is shown, it is not given here.

Legend:
Type in all cases: cell-based
[1] = tested on: LPS-stimulated mouse peritoneal macrophages
Description: (§1) ^aAnti-inflammatory interactions between peptide 1 and peptide 2 of AeaeCec peptides were determined by the chequerboard assay as described previously. First, 2-fold serial dilutions of peptides were prepared. Next, peptides were dissolved in PBS and added to mouse macrophages to final concentrations of 5, 2.5, 1.25, 0.625, 0.3125 µMin each well of a 96-well plate in the presence of E. coli LPS (100 ng/ml). The same volume of PBS served as a control. After incubation at 37˚Cfor 24 h, the culture supernatants of mouse macrophages were detected for the NO production (nitrite accumulation) using Griess reagent. Half maximal inhibitory concentrations (IC50) were calculated. The fractional inhibitory concentration index (FICI) was calculated for each combination using this equation: FICI = FICA+ FICB, where FICA= IC50 of peptide A in combination/IC50 of peptide A alone, and FICB= IC50 of peptide B in combination/IC50 of peptide B alone. FICI of ≤ 0.5 was interpreted as synergy, 0.5 < FICI ≤ 1.0 as additive, 1.0 < FICI ≤ 4.0 as indifferent, and FICI > 4.0 as antagonism. Data were calculated from three independent experiments and presented as mean ± SEM.
as §1, with “2” for “2 of AeaeCec peptides”, “µM in” for “µMin”, “supernatant” for “supernatants”, “assayed” for “detected”, “for” for “for the”, “≤1.0” for “≤ 1.0”

E. coli = tested on: E. coli
Text: MIC: minimal inhibitory concentration. These concentrations represent mean values of three independent experiments performed in duplicates. CI: clinically isolated strain.

[2] = tested on: mouse peritoneal macrophages; assay: CCK-8 cytotoxic assay; settings: 24 h
Description: Cell Counting Kit-8 (CCK-8) was used to detect the cytotoxicity of AeaeCec1-5 against mammalian cells. In brief, mouse peritoneal macrophages, human PBMCs and Vero E6 cells were seeded in 96-well plates (2×10^4 cells/well, 100 μl/well). After cells adhered to culture plate, the culture medium was transferred with a two-fold dilution series of AeaeCec1-5 beginning with 50 μM (100 μl) prepared in serum-free RPMI-1640 for mouse macrophages and human PBMCs, and serum-free DMEM for Vero E6 cells. After incubation at 37 °C for 24 h, CCK-8 solution (10 μl/well) was added for an additional 4 h incubation. The absorbance at 450 nm was recorded on a microplate reader (Epoch Etock, BioTek, Vermont, USA).
Supplementary file 13071_2018_3000_MOESM2_ESM.tif: Additional file 2: Figure S1. Cytotoxicity of Ae. aegypti cecropins against mammalian cells. a Mice peritoneal macrophages, human PBMCs and Vero E6 cells were exposed to 50 μM AeaeCec1-5, respectively. b Mice peritoneal macrophages and human PBMCs were exposed to series of two-fold AeaeCec5 dilutions ranging from 3.125 to 50 μM, respectively. (TIF 161 kb)

[3] = IC50 in combination with AeaeCec1 / IC50 alone
[4] = IC50 in combination with AeaeCec3 / IC50 alone
[5] = IC50 in combination with AeaeCec4 / IC50 alone
[6] = IC50 in combination with AeaeCec5(2W→2A) / IC50 alone
[7] = IC50 in combination with AeaeCec5 / IC50 alone
[8] = IC50 in combination with AeaeCec2 / IC50 alone

Substance	FIC [1, 3]	FIC [1, 4]	FIC [1, 5]	FIC [1, 6]	FIC [1, 7]	FIC [1, 8]	minimal inhibitory concentrations (E. coli) [µg/mL]	cytotoxicity ([2]; 12.5 μM) [%]	cell death ([2]; 50 μM) [%]	cytotoxicity ([2]; concentration below 6.25 μM)
GGLKKLGKKLEGAGKRVFNAAEKALPVVAGAKAL-NH2 [AeaeCec2]	0.50	0.49	0.53	0.50	0.47					
GGLKKLGKKLEGAGKRVFNAAEKALPVVAGAKALRK [AeaeCec1]		0.53	0.54	0.47	0.42	0.52				
RWKFGKKLEKVGKNVFNAAKKALPVVAGYKAL-NH2 [AeaeCec5]	0.44	0.47	0.46			0.42	1.17 to 2.34	9.5	28.9	no cytotoxicity
GGLKKLGKKLEGAGKRVFKASEKALPVVVGIKAI-NH2 [AeaeCec4]	0.50	0.52		0.53	0.43	0.49				
GGLKKLGKKLEGVGKRVFKASEKALPVVTGYKAI-NH2 [AeaeCec3]	0.49		0.50	0.51	0.47	0.52				
RAKFGKKLEKVGKNVFNAAKKALPVVAGYKAL-NH2 [AeaeCec5(2W→2A)]	0.61	0.54	0.56			0.57				
